The target in experiment [1] is recombinant RORγ Ligand Binding Domain (LBD) protein (Homo sapiens (Human), UniProt P51449). As to the kind of experiment: Radio-Ligand RORγ Binding Assay (Assay 1). The settings on record: competition with 25-hydroxy [26,27-3H]-cholesterol, SPA. Put shortly:
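Scintillation proximity competition against 25-hydroxy [26,27-^3H]-cholesterol (8.6 nM solution) for 6×His-GST-tagged RORγ LBD (24 nM solution) in HEPES pH 7.4 with CHAPS, β-octylglucopyranoside and DTT; semi-log compound dilutions, ~1 h total at rt with poly-Lys YSi beads. IC50 from four-parameter fit; Ki derived from [RL] and radioligand KD.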

Experiment [2] deals with full-length RORγt in Jurkat cells (Homo sapiens (Human), UniProt P51449). As to the kind of experiment: RORγt 5×RORE Assay in Jurkat Cells (Assay 2). Type of experiment: cell-based. The settings on record: 5×RORE Nanoluc luciferase reporter. For orientation: A reporter such as luciferase makes a cellular process visible.
Chain of full-length RORγt in Jurkat cells (P51449 other isoform, or with tags, fused parts or gaps): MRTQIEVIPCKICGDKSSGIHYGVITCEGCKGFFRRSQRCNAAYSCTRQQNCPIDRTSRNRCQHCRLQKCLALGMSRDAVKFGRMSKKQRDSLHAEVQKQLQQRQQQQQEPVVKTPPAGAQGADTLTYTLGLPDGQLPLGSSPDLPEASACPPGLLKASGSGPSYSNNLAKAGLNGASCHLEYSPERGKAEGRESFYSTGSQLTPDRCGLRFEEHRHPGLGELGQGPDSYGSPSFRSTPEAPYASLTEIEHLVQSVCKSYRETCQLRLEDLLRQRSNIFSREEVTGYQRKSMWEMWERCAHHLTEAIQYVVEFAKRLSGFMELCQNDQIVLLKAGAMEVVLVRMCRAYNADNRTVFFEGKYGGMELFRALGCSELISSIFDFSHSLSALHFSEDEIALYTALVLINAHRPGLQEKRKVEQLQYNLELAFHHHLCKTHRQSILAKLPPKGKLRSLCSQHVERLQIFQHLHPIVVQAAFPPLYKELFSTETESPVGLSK

Chain of recombinant RORγ Ligand Binding Domain (LBD) protein (P51449 269-508): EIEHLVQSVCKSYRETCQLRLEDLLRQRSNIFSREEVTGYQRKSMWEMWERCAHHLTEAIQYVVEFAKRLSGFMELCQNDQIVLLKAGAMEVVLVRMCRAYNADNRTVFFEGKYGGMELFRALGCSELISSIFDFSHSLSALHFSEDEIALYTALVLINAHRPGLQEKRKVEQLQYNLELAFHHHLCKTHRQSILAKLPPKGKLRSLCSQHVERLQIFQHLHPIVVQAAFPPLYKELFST

For `CCS(=O)(=O)c1ccc(CNC(=O)c2ccc3c(c2)nc(C2CC2)n3Cc2cccc3c2OCCO3)cc1` [I-148, 2-cyclopropyl-1-((2,3-dihydrobenzo[b][1,4]dioxin-5-yl)methyl)-N-(4-(ethylsulfonyl)benzyl)-1H-benzo[d]imidazole-5-carboxamide], the Ki – broadly, the dissociation constant of the complex between target and ligand, obtained from inhibition or displacement – in experiment [1] was less than 100 nM. In experiment [2], the 50% inhibitory concentration (IC50) – broadly, the concentration needed to halve the response being measured – was more than 1000 nM.
Taken in the same sequence, the figures for `CCS(=O)(=O)c1ccc(CNC(=O)c2ccc3c(c2)nc(C2CC2)n3[C@H](C)c2cccc3c2OC(F)(F)O3)cc1` [I-149, (R)-2-cyclopropyl-1-(1-(2,2-difluorobenzo[d][1,3]dioxol-4-yl)ethyl)-N-(4-(ethylsulfonyl)benzyl)-1H-benzo[d]imidazole-5-carboxamide] were less than 100 nM and less than 100 nM.
Taken in the same sequence, the figures for `CCS(=O)(=O)c1ccc(CNC(=O)c2ccc3c(c2)nc(C)n3Cc2ccccc2)cc1` [I-150, 1-benzyl-N-(4-(ethylsulfonyl)benzyl)-2-methyl-1H-benzo[d]imidazole-5-carboxamide] were 100 to 1000 nM and more than 1000 nM.
Regarding `CCS(=O)(=O)c1ccc(CNC(=O)c2ccc3c(c2)nc(C(F)(F)F)n3Cc2cccc3nonc23)cc1` [I-151, 1-(benzo[c][1,2,5]oxadiazol-4-ylmethyl)-N-(4-(ethylsulfonyl)benzyl)-2-(trifluoromethyl)-1H-benzo[d]imidazole-5-carboxamide], in experiment [1], the Ki is less than 100 nM. Moreover, in experiment [2], the IC50 is less than 100 nM.
Regarding `CCS(=O)(=O)c1ccc(CNC(=O)c2ccc3c(c2)nc(C(F)(F)F)n3Cc2cccc3ncoc23)cc1` [I-152, 1-(benzo[d]oxazol-7-ylmethyl)-N-(4-(ethylsulfonyl)benzyl)-2-(trifluoromethyl)-1H-benzo[d]imidazole-5-carboxamide], in experiment [1], the Ki was less than 100 nM. Further, the IC50 in experiment [2] is less than 100 nM.
`CCS(=O)(=O)c1ccc(CNC(=O)c2ccc3c(c2)nc(C2CC2)n3Cc2cc(O)cc(OC(F)(F)F)c2)cc1` [I-153, 2-cyclopropyl-N-(4-(ethylsulfonyl)benzyl)-1-(3-hydroxy-5-(trifluoromethoxy)benzyl)-1H-benzo[d]imidazole-5-carboxamide]: the Ki in experiment [1] was less than 100 nM. This compound also displayed an IC50 in experiment [2] of less than 100 nM.
On to `CCS(=O)(=O)c1ccc(CNC(=O)c2ccc3c(c2)nc(C2CC2)n3Cc2cccc(O)c2O)cc1` [I-154, 2-cyclopropyl-1-(2,3-dihydroxybenzyl)-N-(4-(ethylsulfonyl)benzyl)-1H-benzo[d]imidazole-5-carboxamide], for which the Ki in experiment [1] was less than 100 nM. Further, the IC50 in experiment [2] was more than 1000 nM.
For the compound `CCS(=O)(=O)c1ccc(CNC(=O)c2ccc3c(c2)nc(C(F)(F)F)n3CC2CCN(c3ncc(F)cn3)CC2)cc1` [I-158, N-(4-(ethylsulfonyl)benzyl)-1-((1-(5-fluoropyrimidin-2-yl)piperidin-4-yl)methyl)-2-(trifluoromethyl)-1H-benzo[d]imidazole-5-carboxamide], the inhibition constant Ki in experiment [1] is less than 100 nM. Also, the IC50 in experiment [2] was more than 1000 nM.
Taken in the same sequence, the figures for `CCS(=O)(=O)c1ccc(CNC(=O)c2ccc3c(c2)nc(N(C)C)n3Cc2cccc3c2OC(F)(F)O3)cc1` [I-162, 1-((2,2-difluorobenzo[d][1,3]dioxol-4-yl)methyl)-2-(dimethylamino)-N-(4-(ethylsulfonyl)benzyl)-1H-benzo[d]imidazole-5-carboxamide] were less than 100 nM and less than 100 nM.
The matching figures for `O=C(NCC1CCN(S(=O)(=O)CCO)CC1)c1ccc2c(c1)nc(C(F)(F)F)n2Cc1cccc2c1OC(F)(F)O2` [I-163, 1-((2,2-difluorobenzo[d][1,3]dioxol-4-yl)methyl)-N-((1-((2-hydroxyethyl)sulfonyl)piperidin-4-yl)methyl)-2-(trifluoromethyl)-1H-benzo[d]imidazole-5-carboxamide]: less than 100 nM and less than 100 nM.
Turning to `CCS(=O)(=O)c1ccc([C@H](CC(=O)O)NC(=O)c2ccc3c(c2)nc(C(F)(F)F)n3Cc2cccc3c2OC(F)(F)O3)cc1` [I-165, (S)-3-(1-((2,2-difluorobenzo[d][1,3]dioxol-4-yl)methyl)-2-(trifluoromethyl)-1H-benzo[d]imidazole-5-carboxamido)-3-(4-(ethylsulfonyl)phenyl)propanoic acid], the Ki in experiment [1] was less than 100 nM. Besides, the IC50 in experiment [2] is more than 1000 nM.
The matching figures for `CCS(=O)(=O)c1ccc([C@H](COCC(=O)O)NC(=O)c2ccc3c(c2)nc(C(F)(F)F)n3Cc2cccc3c2OC(F)(F)O3)cc1` [I-166, (R)-2-(2-(1-((2,2-difluorobenzo[d][1,3]dioxol-4-yl)methyl)-2-(trifluoromethyl)-1H-benzo[d]imidazole-5-carboxamido)-2-(4-(ethylsulfonyl)phenyl)ethoxy)acetic acid]: less than 100 nM and more than 1000 nM.
In the case of `CCS(=O)(=O)c1ccc([C@H](CC(=O)NC)NC(=O)c2ccc3c(c2)nc(C(F)(F)F)n3Cc2cccc3c2OC(F)(F)O3)cc1` [I-167, (S)-1-((2,2-difluorobenzo[d][1,3]dioxol-4-yl)methyl)-N-(1-(4-(ethylsulfonyl)phenyl)-3-(methylamino)-3-oxopropyl)-2-(trifluoromethyl)-1H-benzo[d]imidazole-5-carboxamide], the Ki in experiment [1] was less than 100 nM. Further, the IC50 in experiment [2] was less than 100 nM.
Regarding `CCS(=O)(=O)c1ccc([C@H](CC(N)=O)NC(=O)c2ccc3c(c2)nc(C(F)(F)F)n3Cc2cccc3c2OC(F)(F)O3)cc1` [I-168, (S)-N-(3-amino-1-(4-(ethylsulfonyl)phenyl)-3-oxopropyl)-1-((2,2-difluorobenzo[d][1,3]dioxol-4-yl)methyl)-2-(trifluoromethyl)-1H-benzo[d]imidazole-5-carboxamide], the inhibition constant Ki in experiment [1] is less than 100 nM. Besides, in experiment [2], the IC50 was less than 100 nM.
In the case of `CNC(=O)CS(=O)(=O)c1ccc(CNC(=O)c2ccc3c(c2)nc(C(F)(F)F)n3Cc2cccc3c2OC(F)(F)O3)cc1` [I-169, 1-((2,2-difluorobenzo[d][1,3]dioxol-4-yl)methyl)-N-(4-((2-(methylamino)-2-oxoethyl)sulfonyl)benzyl)-2-(trifluoromethyl)-1H-benzo[d]imidazole-5-carboxamide], the Ki in experiment [1] was less than 100 nM. The IC50 in experiment [2] is less than 100 nM.
Turning to `CCS(=O)(=O)c1ccc(C(O)C(=O)Nc2ccc3c(c2)nc(C(F)(F)F)n3Cc2cccc3c2OC(F)(F)O3)cc1` (centres unmarked) [I-170, N-(1-((2,2-difluorobenzo[d][1,3]dioxol-4-yl)methyl)-2-(trifluoromethyl)-1H-benzo[d]imidazol-5-yl)-2-(4-(ethylsulfonyl)phenyl)-2-hydroxyacetamide], the Ki in experiment [1] was less than 100 nM. The compound further displayed a half-maximal inhibitory concentration (IC50) in experiment [2] of less than 100 nM.
With `CCS(=O)(=O)c1ccc(CNC(=O)c2ccc3c(c2)nc(C(F)(F)F)n3Cc2cccc3c2CCO3)cc1` [I-172, 1-((2,3-dihydrobenzofuran-4-yl)methyl)-N-(4-(ethylsulfonyl)benzyl)-2-(trifluoromethyl)-1H-benzo[d]imidazole-5-carboxamide], in experiment [1], the Ki is less than 100 nM. This compound had an IC50 in experiment [2] of less than 100 nM.
Regarding `CCS(=O)(=O)c1ccc(CNC(=O)c2ccc3c(c2)nc(C(=O)OC)n3Cc2cccc3c2OC(F)(F)O3)cc1` [I-173, methyl 1-((2,2-difluorobenzo[d][1,3]dioxol-4-yl)methyl)-5-((4-(ethylsulfonyl)benzyl)carbamoyl)-1H-benzo[d]imidazole-2-carboxylate], the Ki in experiment [1] is less than 100 nM. In addition, the IC50 in experiment [2] was in the range of 100 to 1000 nM.
Take “(R)-1-(1-(3-cyanophenyl)ethyl)-N-(4-(ethylsulfonyl)benzyl)-2-(trifluoromethyl)-1H-benzo[d]imidazole-5-carboxamide [I-93.2]”: in experiment [1], the Ki is less than 100 nM. In experiment [2], the IC50 is less than 100 nM.
